# Tests used:
# DDR1 = biological target: T1, DDR1 (Homo sapiens, UniProt Q08345); experiment: LanthaScreen Europium Kinase Binding assay, DDR1; details: 5 nM DDR1, 20 nM Kinase Tracer 178, 1 h at rt; Ki from IC50 by Cheng-Prusoff; read-out: Ki DDR1
# T1 construct: purchased Carna Biosciences
# Protocol: (§1) DDR1 and DDR2 binding assays were performed using Life Technologies LanthaScreen™ Europium Kinase Binding assay. […] IC50 values were determined in GraphPad Prism 7.0 software, using 4 parameter model: log (inhibitor) vs. response. IC50 values were converted in Ki using the Cheng-Prusoff equation (Ki-IC50/(1+ [Tracer]/Kd).
# DDR2 = biological target: T2, DDR2 (Homo sapiens, UniProt Q16832); experiment: LanthaScreen Europium Kinase Binding assay, DDR2; details: 5 nM DDR2, 10 nM Kinase Tracer 178, 1 h at rt; Ki from IC50 by Cheng-Prusoff; read-out: Ki DDR2
# T2 construct: purchased Life Technologies
# T2 sequence (Q16832 22-855): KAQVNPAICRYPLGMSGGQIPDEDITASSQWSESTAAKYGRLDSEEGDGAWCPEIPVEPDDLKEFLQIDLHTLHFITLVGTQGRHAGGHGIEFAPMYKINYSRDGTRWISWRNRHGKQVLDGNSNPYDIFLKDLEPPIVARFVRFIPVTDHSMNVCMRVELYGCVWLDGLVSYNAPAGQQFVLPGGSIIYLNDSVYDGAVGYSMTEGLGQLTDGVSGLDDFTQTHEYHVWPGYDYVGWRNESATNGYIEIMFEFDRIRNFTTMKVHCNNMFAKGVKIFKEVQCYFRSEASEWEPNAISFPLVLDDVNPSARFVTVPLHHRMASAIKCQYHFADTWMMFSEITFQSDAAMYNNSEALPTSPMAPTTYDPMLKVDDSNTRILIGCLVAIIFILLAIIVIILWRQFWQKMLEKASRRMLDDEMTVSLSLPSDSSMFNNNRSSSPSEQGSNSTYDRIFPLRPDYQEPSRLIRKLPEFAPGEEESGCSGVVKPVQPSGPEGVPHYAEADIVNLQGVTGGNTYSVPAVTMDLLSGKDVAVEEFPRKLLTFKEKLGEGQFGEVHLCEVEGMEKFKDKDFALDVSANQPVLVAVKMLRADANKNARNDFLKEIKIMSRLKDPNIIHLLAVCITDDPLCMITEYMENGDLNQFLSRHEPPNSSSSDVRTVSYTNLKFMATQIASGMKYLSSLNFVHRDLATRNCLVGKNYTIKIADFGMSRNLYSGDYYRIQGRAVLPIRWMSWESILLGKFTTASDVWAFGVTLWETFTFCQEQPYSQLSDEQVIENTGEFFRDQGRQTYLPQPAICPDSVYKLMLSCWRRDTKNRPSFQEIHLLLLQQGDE
# Protocol: as §1
# T1 sequence (Q08345 19-913): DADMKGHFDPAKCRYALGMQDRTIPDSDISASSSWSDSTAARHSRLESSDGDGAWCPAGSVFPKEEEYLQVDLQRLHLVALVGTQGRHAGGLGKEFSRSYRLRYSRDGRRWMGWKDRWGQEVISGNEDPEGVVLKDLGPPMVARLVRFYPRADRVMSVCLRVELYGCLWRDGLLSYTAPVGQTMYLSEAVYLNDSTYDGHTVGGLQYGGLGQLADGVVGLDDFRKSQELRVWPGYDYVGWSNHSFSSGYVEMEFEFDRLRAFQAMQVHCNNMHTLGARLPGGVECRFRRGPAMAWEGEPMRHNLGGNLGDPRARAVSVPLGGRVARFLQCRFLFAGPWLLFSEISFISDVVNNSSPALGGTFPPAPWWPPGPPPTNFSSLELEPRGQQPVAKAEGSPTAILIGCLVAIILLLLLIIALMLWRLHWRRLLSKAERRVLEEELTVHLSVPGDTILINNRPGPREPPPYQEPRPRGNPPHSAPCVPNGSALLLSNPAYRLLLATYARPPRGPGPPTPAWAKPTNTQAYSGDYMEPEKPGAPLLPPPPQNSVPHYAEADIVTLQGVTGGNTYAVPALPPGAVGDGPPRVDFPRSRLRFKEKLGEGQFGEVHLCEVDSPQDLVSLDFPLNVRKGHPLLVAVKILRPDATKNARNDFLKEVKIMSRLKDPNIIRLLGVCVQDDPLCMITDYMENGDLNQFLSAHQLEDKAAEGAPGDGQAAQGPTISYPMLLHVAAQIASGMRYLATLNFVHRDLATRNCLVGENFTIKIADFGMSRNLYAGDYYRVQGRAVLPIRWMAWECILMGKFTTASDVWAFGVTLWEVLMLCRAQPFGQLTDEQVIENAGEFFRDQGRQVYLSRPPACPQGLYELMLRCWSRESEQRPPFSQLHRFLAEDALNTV
SMILES,Ki (DDR1),Ki (DDR2)
"CN(C(=O)Nc1cc(OC(F)(F)F)ccc1F)C1CC2(C1)CN(C(=O)c1cnn3ccn(C)c13)C2 [Example 132, 3-(2-fluoro-5-(trifluoromethoxy)phenyl)-1-methyl-1-(2-(1-methyl-1H-imidazo[1,2-b]pyrazole-7-carbonyl)-2-azaspiro[3.3]heptan-6-yl)urea]",< 5 nM,5 to 25 nM
"CN(C(=O)Nc1cccc(C(F)(F)F)c1)C1CC2(C1)CN(C(=O)c1cnn3ccsc13)C2 [Example 133, 1-methyl-1-(2-(pyrazolo[5,1-b]thiazole-7-carbonyl)-2-azaspiro[3.3]heptan-6-yl)-3-(3-(trifluoromethyl)phenyl)urea]",< 5 nM,5 to 25 nM
"CN(C(=O)Nc1cccc(C(F)(F)F)c1)C1CC2(C1)CN(C(=O)c1cnn3ccn(C)c13)C2 [Example 134, 1-methyl-1-(2-(1-methyl-1H-imidazo[1,2-b]pyrazole-7-carbonyl)-2-azaspiro[3.3]heptan-6-yl)-3-(3-(trifluoromethyl)phenyl)urea]",< 5 nM,5 to 25 nM
"O=C(Nc1cccc(C(F)(F)F)c1)NC1CC2(C1)CN(C(=O)c1cnn3c1SCC3)C2 [Example 135, 1-(2-(2,3-dihydropyrazolo[5,1-b]thiazole-7-carbonyl)-2-azaspiro[3.3]heptan-6-yl)-3-(3-(trifluoromethyl)phenyl)urea]",< 5 nM,5 to 25 nM
"O=C(Nc1cccc(C(F)(F)F)c1)NC1CC2(C1)CN(C(=O)c1cnn3c1SCCC3)C2 [Example 136, 1-(2-(6,7-dihydro-5H-pyrazolo[5,1-b][1,3]thiazine-3-carbonyl)-2-azaspiro[3.3]heptan-6-yl)-3-(3-(trifluoromethyl)phenyl)urea]",< 5 nM,5 to 25 nM
"O=C(Nc1cccc(C(F)(F)F)c1)NC1CC2(C1)CN(C(=O)c1ccnc3ccsc13)C2 [Example 137, 1-(2-(thieno[3,2-b]pyridine-7-carbonyl)-2-azaspiro[3.3]heptan-6-yl)-3-(3-(trifluoromethyl)phenyl)urea]",< 5 nM,< 5 nM
"O=C(Nc1cccc(C(F)(F)F)c1)NC1CC2(C1)CN(c1cnc3[nH]ncc3c1)C2 [Example 138, 1-(2-(1H-pyrazolo[3,4-b]pyridine-5-yl)-2-azaspiro[3.3]heptan-6-yl)-3-(3-(trifluoromethyl)phenyl)urea]",< 5 nM,< 5 nM
"COc1ccc(OC(F)(F)F)cc1NC(=O)CC1CC2(C1)CN(C(=O)c1ccnc3ccsc13)C2 [Example 139, N-(2-methoxy-5-(trifluoromethoxy)phenyl)-2-(2-(thieno[3,2-b]pyridine-7-carbonyl)-2-azaspiro[3.3]heptan-6-yl)acetamide]",< 5 nM,< 5 nM
"O=C(CC1CC2(C1)CN(C(=O)c1ccnc3ccsc13)C2)Nc1cccc(C(F)(F)F)c1 [Example 140, 2-(2-(thieno[3,2-b]pyridine-7-carbonyl)-2-azaspiro[3.3]heptan-6-yl)-N-(3-(trifluoromethyl)phenyl)acetamide]",< 5 nM,< 5 nM
"Cn1ccn2ncc(C(=O)N3CC4(CC(CC(=O)Nc5cccc(C(F)(F)F)c5)C4)C3)c12 [Example 141, 2-(2-(1-methyl-1H-imidazo[1,2-b]pyrazole-7-carbonyl)-2-azaspiro[3.3]heptan-6-yl)-N-(3-(trifluoromethyl)phenyl)acetamide]",< 5 nM,< 5 nM
"COc1ccc(OC(F)(F)F)cc1NC(=O)CC1CC2(C1)CN(C(=O)c1cnn3ccn(C)c13)C2 [Example 142, N-(2-methoxy-5-(trifluoromethoxy)phenyl)-2-(2-(1-methyl-1H-imidazo[1,2-b]pyrazole-7-carbonyl)-2-azaspiro[3.3]heptan-6-yl)acetamide]",< 5 nM,< 5 nM
"Cn1ccn2ncc(C(=O)N3CC4(CC(OC(=O)Nc5cccc(C(F)(F)F)c5)C4)C3)c12 [Example 143, 2-(1-methyl-1H-imidazo[1,2-b]pyrazole-7-carbonyl)-2-azaspiro[3.3]heptan-6-yl(3-(trifluoromethyl)phenyl)carbamate]",< 5 nM,< 5 nM
"COc1ccc(OC(F)(F)F)cc1NC(=O)OC1CC2(C1)CN(C(=O)c1cnn3ccn(C)c13)C2 [Example 144, 2-(1-methyl-1H-imidazo[1,2-b]pyrazole-7-carbonyl)-2-azaspiro[3.3]heptan-6-yl(2-methoxy-5-(trifluoromethoxy)phenyl)carba-mate]",< 5 nM,5 to 25 nM
"O=C(Nc1cc(C(F)(F)F)ccn1)NC1CC2(C1)CN(C(=O)c1ccnc3[nH]ncc13)C2 [Example 145, 1-(2-(1H-pyrazolo[3,4-b]pyridine-4-carbonyl)-2-azaspiro[3.3]heptan-6-yl)-3-(4-(trifluoromethyl)pyridin-2-yl)urea]",< 5 nM,5 to 25 nM
"Cn1ccn2ncc(C(=O)N3CC4(CC(OC(=O)Nc5cncc(C(F)(F)F)c5)C4)C3)c12 [Example 146, 2-(1-methyl-1H-imidazo[1,2-b]pyrazole-7-carbonyl)-2-azaspiro[3.3]heptan-6-yl(5-(trifluoromethyl)pyridin-3-yl)carbamate]",< 5 nM,5 to 25 nM
"O=C(Nc1cccc(C(F)(F)F)c1)OC1CC2(C1)CN(C(=O)c1cnn3ccsc13)C2 [Example 147, 2-(pyrazolo[5,1-b]thiazole-7-carbonyl)-2-azaspiro[3.3]heptan-6-yl(3-(trifluoromethyl)phenyl)carbamate]",< 5 nM,< 5 nM
"O=C(Nc1cccc(C(F)(F)F)c1)NC1CC2(C1)CN(c1nccn3cncc13)C2 [Example 149, 1-(2-(imidazo[1,5-a]pyrazin-8-yl)-2-azaspiro[3.3]heptan-6-yl)-3-(3-(trifluoromethyl)phenyl)urea]",< 5 nM,< 5 nM
"CN(C(=O)Nc1cc(CC(F)(F)F)ccn1)C1CC2(C1)CN(C(=O)c1cnn3ccn(C)c13)C2 [Example 150, 1-methyl-1-(2-(1-methyl-1H-imidazo[1,2-b]pyrazole-7-carbonyl)-2-azaspiro[3.3]heptan-6-yl)-3-(4-(2,2,2-trifluoroethyl)pyridin-2-yl)urea]",< 5 nM,5 to 25 nM
"Cc1ccc(OC(F)(F)F)cc1NC(=O)N(C)C1CC2(C1)CN(C(=O)c1cnn3ccsc13)C2 [Example 151, 1-methyl-3-(2-methyl-5-(trifluoromethoxy)phenyl)-1-(2-(pyrazolo[5,1-b]thiazole-7-carbonyl)-2-azaspiro[3.3]heptan-6-yl)urea]",< 5 nM,5 to 25 nM
"COc1ccc(CC(F)(F)F)cc1NC(=O)NC1CC2(C1)CN(C(=O)c1cnn3ccn(C)c13)C2 [Example 152, 1-(2-methoxy-5-(2,2,2-trifluoroethyl)phenyl)-3-(2-(1-methyl-1H-imidazo[1,2-b]pyrazole-7-carbonyl)-2-azaspiro[3.3]heptan-6-yl)urea]",< 5 nM,5 to 25 nM
"O=C(Nc1cccc(CC(F)(F)F)c1)NC1CC2(C1)CN(C(=O)c1ccnc3[nH]ncc13)C2 [Example 153, 1-(2-(1H-pyrazolo[3,4-b]pyridine-4-carbonyl)-2-azaspiro[3.3]heptan-6-yl)-3-(3-(2,2,2-trifluoroethyl)phenyl)urea]",< 5 nM,< 5 nM
"O=C(Nc1cc(OC(F)(F)F)ccn1)NC1CC2(C1)CN(C(=O)c1ccnc3[nH]ncc13)C2 [Example 154, 1-(2-(1H-pyrazolo[3,4-b]pyridine-4-carbonyl)-2-azaspiro[3.3]heptan-6-yl)-3-(4-(trifluoromethoxy)pyridin-2-yl)urea]",< 5 nM,5 to 25 nM

# From patent publication US20260285855A1, “HETEROARYL DERIVATIVES AS DDRS INHIBITORS” (CHIESI FARMACEUTICI S.P.A., priority 2023, published 2026)
